This passage reports Ki and IC50 results from patent EP1082127B1 (WARNER-LAMBERT COMPANY LLC, priority 1998, dated 1999).

The structures appear in SMILES notation. Structures can show the parent of a compound that is named as a salt.

Assay [1] deals with T1, ICE (Homo sapiens, UniProt P29466).
T1 sequence (P29466 120-297 limits assumed): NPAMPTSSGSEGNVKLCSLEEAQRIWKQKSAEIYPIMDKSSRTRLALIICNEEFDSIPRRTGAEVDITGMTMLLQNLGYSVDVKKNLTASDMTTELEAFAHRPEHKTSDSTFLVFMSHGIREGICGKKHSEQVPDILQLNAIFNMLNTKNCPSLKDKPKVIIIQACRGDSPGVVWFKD
T1 sequence (P29466 317-404 limits assumed): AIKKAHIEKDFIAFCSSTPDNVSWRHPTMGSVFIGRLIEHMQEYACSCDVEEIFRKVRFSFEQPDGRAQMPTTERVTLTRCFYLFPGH
Briefly: ICE inhibition, Ki determination (fluorogenic substrate Ac-Tyr-Val-Ala-Asp-AMC). It counts as biochemical. The conditions noted are these: 15 µM Ac-Tyr-Val-Ala-Asp-AMC, 0.5 nM enzyme, 30°C, reversible competitive model.

Assay [2] concerns the target T1, ICE. Kind of assay: ICE Colorimetric Dose-Response (IC50) Assay. The following applies: 60 minutes preincubation, 50 µM Ac-Tyr-Val-Ala-Asp-pNA, 25°C. It counts as biochemical. Put shortly: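 Human ICE (~24 nM in HGE buffer, pH 7.5, activated with 5 mM DTT) preincubated 60 min at ambient temperature with two-fold serial inhibitor dilutions, in triplicate. Ac-Tyr-Val-Ala-Asp-pNA added at 50 µM; A405 followed for 1 h at 25°C starting 5 min after substrate, activity taken as mean rate.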

Assay [3] has as its system IL-1β production in human peripheral blood mononuclear cells (PBMCs). Briefly: PBMC Cellular Assay - IC50 Determinations (LPS-stimulated IL-1β production, ELISA). It counts as cell-based. The conditions noted are these: human PBMCs stimulated overnight with 10 ng/mL LPS, mature IL-1β by ELISA. An outline of the steps:
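Ficoll-isolated human PBMCs (10^6/well, RPMI with 2% human AB serum) were stimulated overnight with LPS 10 ng/mL (E. coli 0111:B4) with or without compound. Mature IL-1β in medium measured by ELISA; viability checked by MTT over a further 4 h.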

Assay [4] concerns the target T2, Ich-2 enzyme (Homo sapiens, UniProt P49662).
T2 sequence (P49662 81-270 limits assumed): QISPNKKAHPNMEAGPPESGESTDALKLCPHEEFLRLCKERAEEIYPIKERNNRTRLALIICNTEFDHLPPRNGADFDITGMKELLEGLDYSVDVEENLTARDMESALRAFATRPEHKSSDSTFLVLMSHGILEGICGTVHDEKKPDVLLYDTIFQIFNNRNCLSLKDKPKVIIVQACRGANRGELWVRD
T2 sequence (P49662 290-377 limits assumed): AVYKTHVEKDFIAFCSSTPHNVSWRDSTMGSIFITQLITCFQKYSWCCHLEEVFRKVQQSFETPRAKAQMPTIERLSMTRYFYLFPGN
Briefly: Ich-2 Colorimetric Dose-Response (IC50) Assay. Format: biochemical. The conditions noted are these: enzyme 64 nM, 60 µM Ac-Leu-Glu-Val-Asp-pNA; read-out: ICH2 IC50 (Caspase 4). How it is done: Diluted inhibitor stocks are prepared by two-fold serial dilution from a primary stock whose concentration is selected (based on screening results or on prior attempts at IC50 evaluation) to achieve approximately 95% inhibition in the most concentrated well. Aliquots of each dilution are transferred to a microtitre plate in triplicate.
ICE enzyme is diluted to approximately 24 nM in HGE buffer (100 mM Hepes pH 7.5, 0.5 mM EDTA, 20% glycerol, 0.1% Bovine Serum Albumin (BSA), and activated by adding dithiothreitol (DTT) to a final concentration of 5 mM. The activated enzyme is then aliquoted into wells containing inhibitor or vehicle, and the plate is preincubated for 60 minutes at ambient temperature. Substrate (Ac-Tyr-Val-Ala-Asp-pNA) is added to each well to a final concentration of 50 µM, and plates are placed in the microtitre plate-reader thermostated to 25°C. Beginning 5 minutes after addition of substrate, absorbance (405 nm) of wells is monitored for 1 hour, and activity is calculated as the mean rate of change in absorbance during this interval.
Inhibition of Ich-2 enzyme is assayed as described above for ICE, except that enzyme is used at 64 nM, and 60 µM of the Ich-2-specific substrate Ac-Leu-Glu-Val-Asp-pNA is used instead of the ICE substrate Ac-Tyr-Val-Ala-Asp-pNA.

Consider `CC(C)C(CC(=O)NCCCc1ccccc1)C(=O)NC(CC(=O)O)C(=O)CNS(=O)(=O)CC12CCC(CC1)C2(C)C` (stereo not shown) [Example 24, 5-(7,7-Dimethyl-bicyclo[2.2.1]hept-1-ylmethanesulfonylamino)-3-{3-methyl-2-[(3-phenyl-propylcarbamoyl)-methyl]-butyrylamino}-4-oxo-pentanoic acid], for which the Ki in assay [1] was determined as 20.7 nM. Also, the IC50 turned out to be 360 nM in assay [2], 1.6 µM in assay [3] and 8.66 µM in assay [4].
`CCOC1OC(=O)CC1NC(=O)[C@@H](CC(=O)NCCn1cnc2cc(Cl)c(Cl)cc21)C(C)C` (stereo partly shown) [Example 38, N^4-[2-(5,6-Dichloro-benzoimidazol-1-yl)-ethyl]-N^1-(2-ethoxy-5-oxo-tetrahydro-furan-3-yl)-2-isopropyl-succinamide]: in assay [1], the inhibitory constant (Ki) came out at 16.4 nM. The IC50 in assay [2] turned out to be 377 nM; in assay [3], 3.4 µM; in assay [4] it was 18.7 µM.
The like results for `CC(C)C(CC(=O)N(C)CCc1ccccc1)C(=O)NC(CC(=O)O)C(=O)CNS(=O)(=O)CC12CCC(CC1=O)C2(C)C` (stereo not shown) [Example 11, 5-(7,7-Dimethyl-2-oxo-bicyclo[2.2.1]hept-1-ylmethanesulfonylamino)-3-{3-methyl-2-[(methyl-phenethyl-carbamoyl)-methyl]-butyrylamino}-4-oxopentanoic acid] were, in that order, 58 nM, 440 nM, 5.5 µM and 15.7 µM.
Turning to `CCOC1OC(=O)CC1NC(=O)C(CC(=O)NCCn1c(C)nc2ccccc21)C(C)C` (stereo not shown) [Example 46, N^1-(2-ethoxy-5-oxotetrahydro-furan-3-yl)-2-isopropyl-N^4-[2-(2-methyl-benzoimidazol-1-yl)-ethyl]-succinamide], the inhibition constant (Ki) in assay [1] stood at 28.4 nM. Also, the results for the 50% inhibitory concentration (IC50) in assay [2], in assay [3] and in assay [4] were 438 nM, 6.5 µM and 367 µM, respectively.
As for `CC(C)C(CC(=O)NCCc1ccc2ccccc2c1)C(=O)NC(CC(=O)O)C(=O)CNS(=O)(=O)CC12CCC(CC1=O)C2(C)C` (stereo not shown) [Example 18, 5-(7,7-Dimethyl-2-oxo-bicyclo[2.2.1]hept-1-ylmethanesulfonylamino)-3-{3-methyl-2-[(2-naphthalen-2-yl-ethylcarbamoyl)-methyl]-butyrylamino}-4-oxo-pentanoic acid], the inhibitory constant (Ki) in assay [1] is 23.6 nM. Besides, the IC50 in assay [2] worked out at 89.4 nM; in assay [3], 2.05 µM; in assay [4], 3.01 µM.
The like results for `CC(C)C(CC(=O)NCCCc1cccnc1)C(=O)NC(CC(=O)O)C(=O)CNS(=O)(=O)CC12CCC(CC1=O)C2(C)C` (stereo not shown) [Example 29, 5-(7,7-Dimethyl-2-oxo-bicyclo[2.2.1]hept-1-ylmethanesulfonylamino)-3-{3-methyl-2-[(3-pyridin-3-yl-propylcarbamoyl)-methyl]-butyrylamino}-4-oxo-pentanoic acid] were, in that order, 24.5 nM, 113 nM, 1.9 µM and 4.79 µM.
Taken in the same sequence, the figures for `CC(C)C(CC(=O)NCCc1ccccc1)C(=O)NC(CC(=O)O)C(=O)CNS(=O)(=O)CCc1ccccc1` (stereo not shown) [Example 5, 3-[3-Methyl-2-(phenethylcarbamoyl-methyl)-butyrylamino]-4-oxo-5-(2-phenyl-ethanesulfonylamino)-pentanoic acid] were 336 nM, 3550 nM, 35 µM and 9.02 µM.
Taken in the same sequence, the figures for `CC(C)[C@H](CC(=O)NCCCc1ccccc1)C(=O)N[C@H](C=O)CC(=O)O` [Example 7, (S,S)-3-{3-Methyl-2-[(3-phenyl-propylcarbamoyl)-methyl]-butyrylamino}-4-oxo-butyric acid] were 115 nM, 444 nM, 6 µM and 20.7 µM.
Take `CC(C)C(CC(=O)NO)C(=O)NC(CC(=O)O)C(=O)CNS(=O)(=O)CC12CCC(CC1=O)C2(C)C` (stereo not shown) [Example 15, 5-(7,7-Dimethyl-2-oxo-bicyclo[2.2.1]hept-1-ylmethanesulfonylamino)-3-(2-hydroxycarbamoylmethyl-3-methyl-butyrylamino)-4-oxo-pentanoic acid]: the affinity in assay [1] corresponds to a Ki of 441 nM. The IC50 in assay [2] was 2050 nM; in assay [3], 17.5 µM; in assay [4], 13.1 µM.
Taken in the same sequence, the figures for `CC(C)C(CC(=O)NCCCc1ccncc1)C(=O)NC(CC(=O)O)C(=O)CNS(=O)(=O)CC12CCC(CC1=O)C2(C)C` (stereo not shown) [Example 26, 5-(7,7-Dimethyl-2-oxo-bicyclo[2.2.1]hept-1-ylmethanesulfonylamino)-3-{3-methyl-2-[(3-pyridin-4-yl-propylcarbamoyl)-methyl]-butyrylamino}-4-oxo-pentanoic acid] were 26.6 nM, 136 nM, 2 µM and 9.91 µM.
`CC(C)C(CC(=O)NCCc1c[nH]c2ccccc12)C(=O)NC(CC(=O)O)C(=O)CNS(=O)(=O)CC12CCC(CC1=O)C2(C)C` (stereo not shown) [Example 16, 5-(7,7-Dimethyl-2-oxo-bicyclo[2.2.1]hept-1-ylmethanesulfonylamino)-3-(2-{[2-(1H-indol-3-yl)-ethylcarbamoyl]-methyl}-3-methyl-butyrylamino)-4-oxo-pentanoic acid] returned a Ki in assay [1] of 2.5 nM. Besides, the values for the half-maximal inhibitory concentration (IC50) in assay [2], in assay [3] and in assay [4] were 5.1 nM, 0.35 µM and 1.47 µM, respectively.
The like results for `CC(C)C(CC(N)=O)C(=O)NC(CC(=O)O)C(=O)CNS(=O)(=O)CC12CCC(CC1=O)C2(C)C` (stereo not shown) [Example 2, 3-(2-Carbamoylmethyl-3-methyl-butyrylamino)-5-(7,7-dimethyl-2-oxo-bicyclo[2.2.1]hept-1-ylmethanesulfonylamino)-4-oxo-pentanoic acid] were, in that order, 106 nM, 790 nM, 6.25 µM and 3.31 µM.
Taken in the same sequence, the figures for `CC(C)[C@H](CC(=O)NCCn1cnc2cc(Cl)c(Cl)cc21)C(=O)NC(C=O)CC(=O)O` (stereo partly shown) [Example 56, 3-(2-{[2-(5,6-Dichloro-benzoimidazol-1-yl)-ethylcarbamoyl]-methyl}-3-methyl-butyrylamino)-4-oxo-butyric acid] were 4.4 nM, 28.6 nM, 3.25 µM and 4.02 µM.
The like results for `Cc1cc2ncn(CCNC(=O)CC(C(=O)NC(C=O)CC(=O)O)C(C)C)c2cc1C` (stereo not shown) [Example 23, 3-(2-{[2-(5,6-Dimethyl-benzoimidazol-1-yl)-ethylcarbamoyl]-methyl}-3-methyl-butyrylamino)-4-oxo-butyric acid, trifluoroacetate salt] were, in that order, 2.9 nM, 14.5 nM, 3.6 µM and 4.43 µM.
In assay [1], `CC(C)C(CC(=O)NCCc1ccccc1)C(=O)NC(CC(=O)O)C(=O)CNS(=O)(=O)CC12CCC(CC1)C2(C)C` (stereo not shown) [Example 6, 5-(7,7-Dimethyl-bicyclo[2.2.1]hept-1-ylmethanesulfonylamino)-3-[3-methyl-2-(phenethylcarbamoyl-methyl)-butyrylamino]-4-oxo-pentanoic acid] gave an inhibition constant Ki of 142 nM. For the same molecule, the figures for the IC50 in assay [2], in assay [3] and in assay [4] were 1060 nM, 3.25 µM and 9.59 µM, respectively.
Consider `CCOC1OC(=O)CC1NC(=O)C(CC(=O)NCCc1cn(C)c2ccccc12)C(C)C` (stereo not shown) [Example 37, N^1-(2-Ethoxy-5-oxo-tetrahydro-furan-3-yl)-2-isopropyl-N^4-[2-(1-methyl-1H-indol-3-yl)-ethyl]-succinamide], for which, in assay [1], the affinity, expressed as Ki, was 29.7 nM. Further, the IC50 came out at 581 nM in assay [2], 2 µM in assay [3] and 128 µM in assay [4].
